{"source": "patent US7320978B2", "about": "“Oxazole derivatives, preparation and therapeutic use thereof” (Sanofi-Aventis, priority 2004, dated 2008)", "data": [{"compound": "CC(=O)C1(c2ccccc2)CCN(C(=O)c2nc(-c3ccc(Cl)cc3)c(-c3ccc(Cl)cc3Cl)o2)CC1", "values": [{"measurement": "melting point", "value": 175, "unit": "°C"}]}]}
